From US5849777A, “Cell differentiation induction with mevalonate and mevalonolactone derivatives” (University of New Mexico, priority 1995, dated 1998)
Read-outs that look alike come from different tables or passages of the source.

Tests used:
[1] = tested on: Human peripheral blood leukocytes; test: IgG production by human peripheral blood leukocytes (HPBL) in vitro; format: cell-based; conditions: for immune enhancement (in words): Examples II and Table I; for Inhibitory Concentration (concentration inhibiting nonspecific IgG production below normal production): HPBL, additional 90 h culture
Method: Human peripheral blood leukocytes were cultured in a standard tissue culture medium. Aliquots of these cultured cells (1,000,000 cells/ml medium) were cultured for 6 hours, and the specified amount of Formula II compound was added; the cells were then cultured for an additional 90 hours. Sheep red blood cells (SRBC) conditioned with class-specific (IgG) goat anti-human antiserum (1:400) for 2 hours; then guinea pig complement (2%) for 2 hours were conjugated to Protein A as described in detail in Radioimaging and Radioimmunotherapy, Eds. S. W. Burchiel and B. A. Rhodes, Elsevier Science Publishing; New York, 1983, pp. 125-127, incorporated herein by reference.
1. Concentration inhibiting nonspecific IgG production below normal production.

[2] = tested on: Canine glioma cells; test: cytotoxicity as simple survival (T50%); format: cell-based; conditions: Canis lupus familiaris, Glioma cell, read-out: T 50%
Method: (§1) Cytotoxicity was determined as a function of simple survival (T50 %), adherence (ADH50 %) and thymidine incorporation (I50%) of the cells.
(§2) Estimates of the 50% inhibitory concentrations of the various drugs tested on simple survival (T50%) and adherence (ADH50%) for canine glioma cells.

[3] = tested on: Canine glioma cells; test: inhibition of adherence (ADH50%); format: cell-based; conditions: Canis lupus familiaris, Glioma cell
Method: as §1, §2

[4] = tested on: Canine glioma cells; test: inhibition of thymidine incorporation (I50%); format: cell-based; conditions: Canis lupus familiaris, Glioma cell
Method: as §1
Estimates of the I50% of the various drugs tested on thymidine incorporation of canine glioma cells in culture.

[5] = molecular target: T1, rat liver HMG-COA reductase (Rattus norvegicus, UniProt P51639); test: inhibition of rat liver HMG-CoA reductase activity; format: biochemical
T1 construct: rat liver HMG-COA reductase activity; from tissue; host or cells: rat liver
T1 sequence (P51639 1-887): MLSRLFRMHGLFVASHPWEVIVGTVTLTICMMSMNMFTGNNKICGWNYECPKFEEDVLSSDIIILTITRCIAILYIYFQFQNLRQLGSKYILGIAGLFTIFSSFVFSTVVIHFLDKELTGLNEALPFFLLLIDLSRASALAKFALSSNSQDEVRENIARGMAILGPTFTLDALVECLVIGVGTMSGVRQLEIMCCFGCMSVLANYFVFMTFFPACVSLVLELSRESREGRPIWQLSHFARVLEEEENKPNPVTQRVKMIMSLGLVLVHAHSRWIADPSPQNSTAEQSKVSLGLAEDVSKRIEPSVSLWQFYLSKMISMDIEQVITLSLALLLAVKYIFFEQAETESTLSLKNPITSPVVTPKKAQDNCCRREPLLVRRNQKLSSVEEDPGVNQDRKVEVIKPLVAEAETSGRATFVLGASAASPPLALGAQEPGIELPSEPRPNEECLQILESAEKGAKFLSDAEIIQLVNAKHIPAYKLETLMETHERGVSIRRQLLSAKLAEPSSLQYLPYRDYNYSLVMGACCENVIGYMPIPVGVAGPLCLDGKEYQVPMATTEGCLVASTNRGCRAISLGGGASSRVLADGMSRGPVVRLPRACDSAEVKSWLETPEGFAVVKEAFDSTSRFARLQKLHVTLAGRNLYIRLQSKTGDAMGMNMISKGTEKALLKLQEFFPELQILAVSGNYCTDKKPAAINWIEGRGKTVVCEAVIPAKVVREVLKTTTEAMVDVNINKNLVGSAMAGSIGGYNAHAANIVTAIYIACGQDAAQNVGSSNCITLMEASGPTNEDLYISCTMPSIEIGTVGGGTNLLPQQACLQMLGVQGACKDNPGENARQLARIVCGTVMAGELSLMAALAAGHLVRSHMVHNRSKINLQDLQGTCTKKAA
Excerpt: While a number of the compounds of the Formula I are known HMG-CoA reductase inhibitors, there is no apparent correlation between HMG-CoA reductase inhibitory activity and promotion of differentiation activity according to the invention. […] Accordingly, useful guidelines for selecting compounds having optimal differentiation-promoting activity according to the invention broadly comprise selecting compounds of the Formula I having the specified stereochemical configuration and an in vitro immunological activity as set forth in the in vitro assay of Example II, of at least about 3-fold.

[6] = tested on: CG (canine glioma) cells; test: tumor-specific antibody production in vivo (anti-CG IgG titer); set-up: species or system dog
Excerpt: Titer of CG-specific antibody was compared to control [no administration of compound IIa' and no implantation of CG (canine glioma) cells]. […] This increase in titer continued with time until tumor regression was noted by independent measurement (NMR evaluation, below).
The results are particularly striking as the experimental tumor (brain glioma) is generally considered to enjoy a privileged position beyond the blood/brain barrier, substantially beyond the reach of the humoral immune system. Experimental protocols are described in detail below (FIGS. 7-9, Example VII).

[7] = tested on: CG tumor; test: chromium-release cell-mediated lympholysis (CML) vs CG tumor; format: in vivo, dog
Excerpt: Cellular immune response reflected the results reported in III, 1 above. […] This also is in the absence of CG antigen exposure. […] Thus both cellular and humoral immunity appear to be modulatable in the absence of antigen by the compounds of the instant invention.

[8] = tested on: canine glioma cells; test: in vivo tumor inhibition: nude rat model; set-up: species or system Nude Rats (canine glioma cells)
Method: Fifty four Nude Rats (Harlan) were injected in the right flank with 5×10^6 canine glioma cells. Animals at the time of injection were between 52 and 63 days old and weighed approximately 200 g. The rats were divided into 7 groups, each group having a total number of 7 rats except for the control group, which totalled 12 animals. Compound IIc' was administered to the experimental animals at one of the following dose for each experimental group: 100 μg/kg, 10 μg/kg, 1 μg/kg, 0.1 μg/kg, 0.01 μg/kg and 0.001 μg/kg (phosphate buffer saline, M, W, F, I.P.). The control animals were injected with PBS (phosphate buffered saline) only. The volume of each injection was 100 μl. The injections of drug were simultaneously begun with injection of tumor cells. The animals were injected with the appropriate dosage of drug (1 ng/kg to […]) by I.P. injection and tumor length, width and depth were measured using caliphers each Monday, Wednesday and Friday (M, W, F) morning for approximately 9 weeks. Each point on the graphs represents the total of all rats for each group. […] The data were normalized for the greater number of control animals by multiplying the total tumor volume for the control animals by 7/12.

[9] = tested on: Canine glioma cells; test: effect on tumor cell generation time, canine glioma; format: cell-based; conditions: 10 nM
Method: The cells were harvested every 72 hours after the controls had reached 85% confluency. Generation time (Tg) was determined as the number of hours required for the cell population to double.
Mean of triplicate determinations. Canine glioma cells were grown under conditions to promote exponential growth characteristics; 2×10^5cells in a T-25 flask. The cells were harvested every 72 hours after the controls had reached approximately 85% confluency. The drug was added at the initiation of culture in DMSO, the control cultures had just DMSO. The drug concentration was adjusted with DMSO so that the final concentration of DMSO was always 0.5%.

[10] = tested on: human colon carcinoma cell line (LS-174); test: effect on tumor cell generation time, human colon carcinoma; format: cell-based
Method: The procedure of Example VA, above, was repeated except a human colon carcinoma cell line (LS-174) was used instead of the canine glioma cell line.
Mean of triplicate determinations. LS-174 cells (human colon carcinoma) were grown under conditions to promote exponential growth characteristics; 2×10^5 cells in a T-25 flask. The cells were harvested every 72 hours after the controls had reached approximately 85% confluency. The drug was added at the initiation of culture in DMSO, the control cultures had just DMSO. The drug concentration was adjusted with DMSO so that the final concentration of DMSO was always 0.5%.

[11] = read-out: IC50 (concentration for 50% inhibition of rat liver HMG-COA reductase activity), Table I

CC(C)c1nc(-c2ccccc2)n(-c2ccc(F)cc2)c1/C=C/[C@@H](O)C[C@@H](O)CC(=O)O [IId, reference compound]
activation at 0.1 µM ([1]; Homo sapiens, Leukocyte, 90 h, 100 nM, read-out: Stimulation of IgG Production): 320%

CC[C@H](C)C(=O)O[C@H]1C[C@@H](C)C=C2C=C[C@H](C)[C@H](CC[C@@H]3C[C@@H](O)CC(=O)O3)[C@H]21 [lovastatin, reference compound]
immune enhancement (in words) [1]: no immune enhancement

CC[C@H](C)C(=O)O[C@H]1CCC=C2C=C[C@H](C)[C@H](CC[C@@H]3C[C@@H](O)CC(=O)O3)[C@H]21 [compactin, reference compound]
IC50 ([2]; 24 h exposure): 500 nM
IC50 ([2]; 72 h exposure): 200 nM
IC50 ([2]; 96 h exposure): 350 nM
IC50 ([3]; 24 h exposure): 50 nM
IC50 ([3]; 72 h exposure): 75 nM
IC50 ([3]; 96 h exposure): 75 nM
immune enhancement (in words) [1]: no immune enhancement
IC50 ([4]; 24 h exposure, read-out: I50%): 100 nM
IC50 ([4]; 48 h exposure, read-out: I50%): 75 nM
IC50 ([4]; 72 h exposure, read-out: I50%): 30 nM
IC50 ([4]; 96 h exposure, read-out: I50%): 50 nM

CC(C)c1nc(-c2ccccc2)n(-c2ccc(F)cc2)c1/C=C/[C@H](O)C[C@H](O)CC(=O)O [IIa]
IC50 ([5]; Table I): 3150 nM
CG-specific antibody ([6]; at tumor regression, within a few days): reverted to baseline control levels
CG-specific antibody (IgG) production ([6]; following implantation of the CG tumor cells): increased significantly
titers of antibody over the control antibody titer ([6]; in the absence of antigen): titers of antibody increased over the control antibody titer significantly
CML reactivity ([7]; after 5 weeks, tumor totally regressed): returned to baseline
CG-specific CML ([7]; after 14 days of administration, I.P., M, W, F): only baseline levels of CG-specific CML were present
CML reactivity ([7]; after a few days of exposure to the CG tumor implant): large increase in the CML reactivity
CML ([7]; after an additional 2 months, absence of CG antigen exposure): significant increase in CML
Inhibitory Concentration (concentration inhibiting nonspecific IgG production below normal production) [1]: none found

CC(C)c1nc(-c2ccccc2)n(-c2ccc(F)cc2)c1/C=C/[C@@H](O)C[C@H](O)CC(=O)O [IIb]
IC50 [5, 11]: 1350 nM
Inhibitory Concentration (concentration inhibiting nonspecific IgG production below normal production) [1]: none found

CC(C)c1nc(-c2ccccc2)n(-c2ccc(F)cc2)c1/C=C/[C@H](O)C[C@@H](O)CC(=O)O [Compound IIc']
IC50 [5, 11]: 22 nM
IC-50% TITER (ANTI-CG) ([6]; treatment 2+ months, tumor regressed): BASELINE VALUES
optimal dose in vivo, equivalent concentration with uniform distribution ([8]; 100 ng/kg): 250 pM
most effective dosage for inhibition of canine glioma cells ([8]; I.P., M, W, F, approx. 9 weeks (FIG. 3)): 100 ng/kg
cytostatic activity ([8]; higher doses, 10 and 100 μg/kg I.P.): Little or no cytostatic activity
cytostatic activity ([8]; lowest dose, 1 ng/kg I.P.): Little or no cytostatic activity
slope "M" (LINEAR REGRESSION OF TOXICITY), Y = "M"X + B ([7]; December 14, 1987): 0.05
slope "M" (LINEAR REGRESSION OF TOXICITY), Y = "M"X + B ([7]; February 9, 1988): 0.35
slope "M" (LINEAR REGRESSION OF TOXICITY), Y = "M"X + B ([7]; February 17, 1988): 0.75
slope "M" (LINEAR REGRESSION OF TOXICITY), Y = "M"X + B ([7]; March 31, 1988): 0.05
optimal dose in vitro (immune stimulation) ([1]; HPBL assay): 100 pM
Inhibitory Concentration (concentration inhibiting nonspecific IgG production below normal production) [1]: none found
immune stimulant (in words) ([1]; see Examples above): potent immune stimulant

CC(C)c1nc(-c2ccccc2)n(-c2ccc(F)cc2)c1/C=C/[C@H](O)C[C@@H](O)CC(=O)O (relative stereo) [Compound IIe']
contact inhibition as the cells approached confluency [9]: showed evidence of contact inhibition
% CHANGE (Tg) ([9]; 72 × 2 h): 129%
Tg ([9]; 72 × 2 h): 24.0 h
% CHANGE (Tg) ([9]; 72 × 3 h): 180%
Tg ([9]; 72 × 3 h (three passages), control 18.6 h): 33.4 h
% CHANGE (Tg) ([9]; 72 × 4 h): 155%
Tg ([9]; 72 × 4 h): 28.9 h
% CHANGE (Tg) ([9]; 72 h): 136%
Tg ([9]; 72 h): 25.3 h
slowing of the growth rate ([9]; three passages): 1.8 fold
IC50 ([2]; 24 h exposure): 750 nM
IC50 ([2]; 72 h exposure): 800 nM
IC50 ([2]; 96 h exposure): 900 nM
IC50 ([5]; Example IV, read-out: IC50 (HMG-CoA reductase)): 3 nM
IC50 [5, 11]: 3 nM
IC50 ([3]; 24 h exposure): 75 nM
IC50 ([3]; 72 h exposure): 70 nM
IC50 ([3]; 96 h exposure): 75 nM
Stimulation of IgG Production ([1]; 1&100 nM): 1990%
activation at 0.0001 µM ([1]; Homo sapiens, Leukocyte, 90 h, 100 pM, read-out: Stimulation of IgG Production): < 350%
IC50 ([4]; 24 h exposure, read-out: I50%): 50 nM
IC50 ([4]; 48 h exposure, read-out: I50%): 75 nM
IC50 ([4]; 72 h exposure, read-out: I50%): 80 nM
IC50 ([4]; 96 h exposure, read-out: I50%): 50 nM
IC50 ([4]; Table V, all exposure times, read-out: I50% (thymidine incorporation into DNA)): 50 to 80 nM
% CHANGE (Tg) ([10]; 10 nM, 72 × 2 h): 400%
Tg ([10]; 10 nM, 72 × 2 h): 106.2 h
% CHANGE (Tg) ([10]; 10 nM, 72 × 3 h): 416%
Tg ([10]; 10 nM, 72 × 3 h (three passages), control 26.5 h): 110.3 h
% CHANGE (Tg) ([10]; 10 nM, 72 × 4 h): 414%
Tg ([10]; 10 nM, 72 × 4 h): 109.6 h
% CHANGE (Tg) ([10]; 10 nM, 72 h): 320%
Tg ([10]; 10 nM, 72 h): 84.9 h
prolongation of generation time ([10]; 10 nM, three passages): 4.16 fold
generation time after drug withdrawn ([10]; drug withdrawn, two passages): returned to control levels
